The values that follow are results of earlier work, collected in US20210338702A1, “A teniposide injection with high dilution stability and preparation method thereof” (JIANGSU LINGHANG BIOLOGICAL TECHNOLOGY CO., LTD., priority 2018, published 2021).

For data set [1] the following is noted: compared with the same type of drug etoposide.

Turning to `COc1cc([C@@H]2c3cc4c(cc3[C@@H](O[C@@H]3O[C@@H]5CO[C@@H](c6cccs6)O[C@H]5[C@H](O)[C@H]3O)[C@H]3COC(=O)[C@H]23)OCO4)cc(OC)c1O` [Teniposide], the Solubility in water result was “almost insoluble in water”. For the same compound, the “Biological activity relative to etoposide” value in data set [1] is reported as 5-10 times.
